Measurements as given in paper PMC12040169 (PLOS Biology, 2025).

Experiment: in vitro
Conditions: human, hela cells, % viability

| Structure (SMILES) | viability at 28.5 h, 10 µM | viability at 28.5 h, 10 µM (bulk resorufin, single well) |
| --- | --- | --- |
| COc1ccc(OC)c(NS(=O)(=O)c2ccc(C(=O)O)cc2)c1 [CBK267603] | 106% | – |
| O=C(O)c1ccc(NCc2ccccc2OCc2ccc(F)cc2)cc1 [CBK266487] | 101% | – |
| COc1cccc(OCC(=O)Nc2ccccc2C(=O)O)c1 [CBK286819] | 85.9% | – |
| Cc1ccsc1CN(Cc1nccn1C)CC(C)O (centres unmarked) [CBK282976] | 92.3% | – |
| O=S(=O)(NCCSc1nnnn1-c1ccccc1)c1cccs1 [CBK268013] | 112% | – |
| O=C(NCc1c(F)cccc1F)c1ccc(-c2ccc(OC(F)(F)F)cc2)nc1 [CBK161007T] | 97.6% | – |
| CN(C)C(=O)CC(O)c1cc2n(n1)CCN(Cc1cccs1)C2 (centres unmarked) [CBK306620] | 113% | – |
| CCN(C(C)COC)S(=O)(=O)c1ccc(-n2ncc(Cl)c(Cl)c2=O)cc1 (centres unmarked) [CBK305662] | 37% | – |
| Cc1cc(C(=O)NCc2ccc(-c3csnn3)cc2)n[nH]1 [CBK149314] | 88.8% | – |
| CC(C)c1nccn1CC(=O)N(C)C(C)c1ccc(F)c(F)c1 (centres unmarked) [CBK306443] | 94.5% | – |
| COc1ccc(CCNC(=O)c2cnoc2-c2ccc(C)cc2)cc1 [CBK153731] | 119% | – |
| Cc1cc(C)n2nc(CC(=O)N3CCCC3c3ccccn3)nc2n1 (centres unmarked) [CBK304408] | 90.8% | – |
| C(=N\N1CCN(Cc2cccc3ccccc23)CC1)/c1ccncc1 [CBK263003] | 94.6% | – |
| CCN1CCC2(CCC1=O)CN(Cc1cncn1CC(C)C)CCN2C (centres unmarked) [CBK306947] | 96% | – |
| CNCC(=O)N1CCN(C(=O)c2ccc(Cl)cc2Cl)CC1 [CBK029576] | 99.9% | – |
| CN1CCN(CC2(Cn3ccnc3-c3ccc(C(=O)O)cc3)CC2)CC1 [CBK307641] | 75.1% | – |
| NC1=NC(=O)C2(COC(c3cccnc3)OC2)S1 (centres unmarked) [CBK019981] | 91.3% | – |
| OCc1cccc(-c2nccnc2NCc2ccc(OC(F)(F)F)cc2)c1 [CBK037476] | 108% | – |
| Cc1c(C(=O)Nc2nc(-c3ccc(S(=O)(=O)N4CCOCC4)cc3)cs2)oc2ccc(Cl)cc12 [CBK267663] | 93.7% | – |
| Cc1cc(Cl)ccc1CNC(=O)c1ccc2[nH]ccc2c1 [CBK149048] | 81.7% | – |
| CC(C)Nc1cncc(OCc2ccc(Cl)c(Cl)c2)n1 [CBK115653] | 87.5% | – |
| COc1ccc(C(=O)Nc2ccc(S(=O)(=O)Nc3nccs3)cc2)cc1I [CBK263880] | 92.7% | – |
| Cc1cc(-c2ccc(=O)n(CCNC(=O)C3CC3)n2)c(C)o1 [CBK284521] | 93.2% | – |

| Structure (SMILES) | viability at 28.5 h, 10 µM | viability at 28.5 h, 10 µM (bulk resorufin, single well) |
| --- | --- | --- |
| CC(NC(=O)N1CCCN(Cc2ccccn2)CC1)c1cnn(C)c1 (centres unmarked) [CBK307537] | 102% | – |
| CC(=O)Nc1ccc(NC(=O)C2COc3ccccc3O2)cc1C (centres unmarked) [CBK269898] | 99.1% | – |
| O=C(Nc1cnc2ccccc2c1)OCCc1cccnc1 [CBK200126] | 93.5% | – |
| Cc1ccc(Cl)cc1-n1cc(-c2ccc(F)cc2)nn1 [CBK113128] | 98.9% | – |
| CCN1CCCC1CNC(=O)c1cc(Br)cnc1N(C)S(C)(=O)=O (centres unmarked) [CBK076520] | 93.5% | – |
| CS(=O)(=O)N(Cc1cc2ccccc2nc1O)CC1CCCO1 (centres unmarked) [CBK269517] | 86.1% | – |
| CCc1ccc(CNC(=O)Cn2nnnc2-c2ccc(CN3CCC(C)CC3)cn2)cc1 [CBK153930C] | 85.6% | – |
| COc1ccc(CCC(=O)c2cnc3sc4c(n23)CCCCC4)cc1 [CBK016849] | 109% | – |
| C/C(=N\NC(=O)CCC(=O)Nc1ccccc1C)c1ccc(O)cc1O [CBK261946] | 94.2% | – |
| C=CCOc1ccccc1OCCCN1CCN(C)CC1 [CBK269714C] | 95.6% | – |
| O=C(CCN1CCOCC1)N/N=C\c1cccs1 [CBK005035] | 90.6% | – |
| Cc1cc(C(=O)N2CCC(Cc3ccccc3)CC2)n[nH]1 [CBK200187] | 84.2% | – |
| O=C(CCc1c[nH]c2ccccc12)OCc1nnc(-c2ccccc2)o1 [CBK269642] | 101% | – |
| NC1CCCN(C(=O)c2ccc(Oc3cccc(Br)c3)nc2)C1 (centres unmarked) [CBK304747] | 92.6% | – |
| O=C(O)c1cccc(NS(=O)(=O)c2ccc(-c3cc(C(F)(F)F)on3)s2)c1 [CBK155722] | 98% | – |
| CC(=O)N(C)c1ncc(Br)cc1C(=O)NCc1ccc2c(c1)CCO2 [CBK076544] | 93.5% | – |
| Oc1ccc2cc(-c3cccc(C(F)(F)F)c3)cnc2n1 [CBK081285] | 59.5% | – |
| CCOc1ccccc1OCC(=O)NN [CBK261782] | 93.2% | – |
| COc1ccc(C(NC(=O)CSCc2cccc(C(=O)O)c2)c2ccc(OC)cc2)cc1 [CBK296680] | 97.6% | – |
| COc1ccc(CCNC(=O)c2n[nH]c(=O)c3ccccc23)cc1OC [CBK270160] | 87.6% | – |
| CC1CN(C)C(C)CC1OC(=O)C(c1ccccc1)c1ccccc1 (centres unmarked) [CBK087393] | 105% | – |
| O=C(NCC1(c2ccccc2)CCC1)C1CCCN(C(=O)c2ccoc2)C1 (centres unmarked) [CBK296670] | 85.6% | – |
| O=C(CCNS(=O)(=O)c1ccccc1Cl)N1CCN(C(=O)C2CC2)CC1 [CBK306025] | 113% | – |

| Structure (SMILES) | viability at 28.5 h, 10 µM | viability at 28.5 h, 10 µM (bulk resorufin, single well) |
| --- | --- | --- |
| CCc1noc(C)c1C(=O)Nc1ncc(C)s1 [CBK288244] | 95.4% | – |
| O=C(NCc1cccnc1)C1CCC(Cn2c(=S)[nH]c3ccccc3c2=O)CC1 (centres unmarked) [CBK266678] | 87.9% | – |
| CSCC(O)Cn1nc(O)cc(C)c1=O (centres unmarked) [CBK006293] | 105% | – |
| COc1cc2c(cc1OC)CN(CCN1CCCCC1)CC2 [CBK126439] | 101% | – |
| Cc1cccc(Cl)c1S(=O)(=O)c1ccc2ccnc(N3CCNCC3)c2c1 [CBK036394C] | 78.9% | – |
| COCCn1cnnc1CCNC(=O)Cc1cccc(O)c1 [CBK307322] | 112% | – |
| CCCn1c(SCC(=O)N2CCOCC2)nc2cc(Cl)ccc2c1=O [CBK306482] | 97.6% | – |
| COc1cc([N+](=O)[O-])ccc1NC(=O)C1CC(Cl)=CCC1C(=O)O (centres unmarked) [CBK264956] | 88.8% | – |
| O=C(Nc1ccc2nc(SCc3ccc([N+](=O)[O-])cc3)sc2c1)c1ccccc1 [CBK263427] | 98.4% | – |
| COCCNc1cc(-c2ccco2)ncn1 [CBK090796] | 92.5% | – |
| Cc1ccc2nc(-c3ccc4c(c3)CCN4S(C)(=O)=O)cn2c1 [CBK285185] | 96.6% | – |
| CC(C)C(=O)Nc1nc2c(nc(OCc3ccccc3)n2C2CC(O)C(CO)O2)c(=O)[nH]1 (centres unmarked) [CBK201264] | 91.8% | – |
| c1ccc(CSc2ncnc3c2oc2ccccc23)cc1 [CBK287398] | 103% | – |
| Cc1ccc(-c2noc(CN3CCN(c4ccccn4)CC3)n2)cc1 [CBK266457] | 95.7% | – |
| CC(c1ccc(F)c(F)c1)N(C)C(=O)Cn1cnnc1[S+](C)[O-] (centres unmarked) [CBK305311] | 105% | – |
| CN(C)C1=NC(N(C)C)=NP(N(C)C)(N(C)C)=N1 [CBK261057] | 91.8% | – |
| CC(C)[C@@H](CO)n1c(=O)[nH]c2ncc(-c3cccc(/C=C/C(=O)O)c3)nc21 [CBK065043] | 88.6% | – |
| CCOC(=O)N1CCC(NC(=O)N(CCN(C)C)Cc2ccccc2)CC1 [CBK155121] | 109% | – |
| CCCCc1cc(=O)oc2cc(OCC(=O)O)ccc12 [CBK264205] | 99.4% | – |
| CC(C)C[C@@H]1N[C@H](C(=O)NC2CCC2)Cc2cn(Cc3nccn3C)c3cccc1c23 [CBK289422] | 101% | – |
| O=C(Nc1cccnc1)c1cnc2cc(C(F)(F)F)ccc2c1O [CBK107474] | 77.8% | – |
| COC(=O)c1cc(=O)c2ccccc2o1 [CBK000064] | 91.8% | – |
| CC(C)SCC(=O)Nc1ccc(Br)cc1 [CBK057618] | 102% | – |

| Structure (SMILES) | viability at 28.5 h, 10 µM | viability at 28.5 h, 10 µM (bulk resorufin, single well) |
| --- | --- | --- |
| O=C(O)Cn1cc(C(=O)c2cccs2)c2ccccc21 [CBK287110] | – | 91.9% |
| O=C(CSc1nccc2ccccc12)NC1CCCOC1 (centres unmarked) [CBK282677] | 85.2% | – |
| Cc1nccn1CCC1CCN(C(=O)CC2CCCCO2)CC1 (centres unmarked) [CBK281974] | 84.3% | – |
| COc1ccccc1-c1nn2c(Cn3cnc4ccccc43)nnc2s1 [CBK268218] | 93% | – |
| Cc1c(NC(=O)CCCC(=O)O)cccc1C(=O)O [CBK265525] | 95% | – |
| COc1ccc(/C=C/C(=O)c2ccc(OC)cc2OC)c(OC)c1 [CBK261666] | 87.3% | – |
| CCOC(=O)c1[nH]c2c([N+](=O)[O-])cccc2c1O [CBK115315] | 88.1% | – |
| O=C1CC(=O)N(Cc2ccc(F)cc2)C(=O)N1 [CBK291156] | 95.2% | – |
| O=C1NC(=O)C(CCc2ccccn2)(CCc2ccccn2)C(=O)N1c1cccc(C(F)(F)F)c1 [CBK269021] | – | 99.8% |
| COCCNC(=O)c1ccc(-c2ccccc2)nc1N(C)C [CBK106049] | 99.8% | – |
| O=C(Cc1ccccc1)N1CCN(Cc2ccc3ccccc3c2)CC1 [CBK263037] | 112% | – |
| Cc1ccc(C)c(C2CCCN2C(=O)Cn2cccc(C(=O)NCc3ccccc3)c2=O)c1 (centres unmarked) [CBK286062] | 78.5% | – |
| CCCn1nnc(NC(=O)COc2ccc3ccccc3c2)n1 [CBK265923] | 101% | – |
| CCN(Cc1ccncc1)C(=O)NCC1CCCCC1 [CBK155132] | 103% | – |
| CC(=O)Nc1ccc(Nc2cc(-c3ccco3)ncn2)cc1 [CBK090719] | 100% | – |
| Cc1cc(CN(C)C(=O)c2cccc(NC(=O)C3CCCCC3)c2)no1 [CBK305722] | 92.6% | – |
| CC(C)NC(=O)C1CN(Cc2ccccc2)CC12CCc1ccccc1C2NC(=O)CN (centres unmarked) [CBK283093] | 79.4% | – |
| CC(=O)N1CC2(CCN(C(=O)C(C)(C)C)CC2)Nc2ccccc21 [CBK284448] | 102% | – |
| O=C(NC1CCCOC1)C1CCN(Cc2ccccc2Cl)CC1 (centres unmarked) [CBK282520] | 107% | – |
| CCCCN(C)C(=O)Cn1nc(C)c2ccccc2c1=O [CBK305050] | 81.4% | – |
| CCOC(=O)C(=O)N(C)c1c(CC)nc2c(OCc3ccccc3)cccn12 [CBK147879] | 86.8% | – |
| CCOC(=O)c1cnc2ccc(OC)cc2c1Nc1ccc(OC)cc1 [CBK095337] | 93.7% | – |
| O=C(CN1C(=O)[C@H]2CCCN2c2ncccc21)NCCc1c[nH]c2ccccc12 [CBK286206] | 107% | – |
